These results are taken from ChEMBL document CHEMBL1201862, “PubChem BioAssay data set” (2004).

Test systems include CCRF-CEM; DMS-273; HCT-15; HOP-18; HOP-62; HOP-92; HT-29; KM-20L2; M14; OVCAR-5; SN12C; SNB-19; SNB-75; MCF7; SNB-78; CAKI-1; DU-145; MDA-MB-435; MDA-N; T47D.
Common to all, as to experiment: growth of human tumour cells (NCI), 48 h

Structures are written as SMILES.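 How tested: cells in 96-well plates exposed to compound for 48 hours at five concentrations. The concentration for 50% growth inhibition is given as GI50.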 Calls of active or inactive are those of the source. Cut-off read from the data, not from the text of the source: active = GI50 up to about 1.1 µM and inactive = higher. Some results are limits rather than exact numbers.

For the molecule `C#Cc1ccccc1C(=O)OC`, the GI50 in the assay with CCRF-CEM was > 100 µM (inactive); in the assay on DMS-273 it was > 100 µM (inactive); with HCT-15, > 100 µM; in the assay with HOP-18 it was > 100 µM (inactive); with HOP-62 it was > 100 µM (inactive); in the assay on HOP-92, > 100 µM (inactive). For the same molecule, the GI50 with HT-29, in the assay with KM-20L2, in the assay with M14, with OVCAR-5, in the assay on SN12C and with SNB-19 was > 100 µM (inactive) in each case. In addition, the GI50 with SNB-75 was 11.5 µM (inactive).
As for `CSc1nc2c(ncn2C2OC(CO)C(O)C(O)C2O)c(=O)n1C` (centres undefined), the GI50 in the assay on CCRF-CEM is > 100 µM (inactive); in the assay with DMS-273 it was > 100 µM (inactive); in the assay on HCT-15, > 100 µM; in the assay with HOP-18 it was > 88.9 µM (inactive); in the assay with HOP-62 it was > 100 µM (inactive); in the assay with HOP-92 it was > 100 µM (inactive). Moreover, the GI50 with HT-29, in the assay with KM-20L2, with MCF7, in the assay on OVCAR-5, in the assay with SN12C and with SNB-19 was > 100 µM (inactive) throughout. In addition, the GI50 in the assay on SNB-75 and with SNB-78 was > 100 µM (inactive) each time.
For the molecule `Cc1nn(C(=O)Cc2ccccc2)c2c1C(c1ccc3ccccc3c1O)SC(=N)N2` (centres undefined), the GI50 in the assay with CAKI-1 is > 100 µM (inactive); in the assay with CCRF-CEM it was 22.1 µM (inactive); in the assay on DU-145, > 100 µM (inactive); in the assay with HCT-15 it was > 100 µM; in the assay with HOP-62 it was > 100 µM (inactive); with HT-29, > 100 µM (inactive). Moreover, the GI50 in the assay with M14, in the assay with MCF7, in the assay with MDA-MB-435, in the assay on MDA-N, in the assay with SN12C and with SNB-19 was > 100 µM (inactive) each time. The GI50 is 52.1 µM (inactive) with SNB-75 and > 100 µM (inactive) in the assay with T47D.
In the case of `[O-]c1c2c(nn1-c1ccc(F)cc1)c1ccccc1c[n+]2Cc1ccccc1`, the GI50 with CAKI-1 was 18.8 µM (inactive); in the assay with CCRF-CEM, 0.401 µM (active); with HCT-15 it was 0.581 µM; in the assay on HOP-62, 16.5 µM (inactive); with HOP-92, 18.9 µM (inactive); with HT-29, 10.2 µM (inactive). In addition, the GI50 in the assay with KM-20L2 was 11.6 µM (inactive); with M14, 1.79 µM (inactive); in the assay on OVCAR-5 it was 11.9 µM (inactive); with SN12C, 16.4 µM (inactive); with SNB-19, 30.8 µM (inactive); in the assay on SNB-75, 23.3 µM (inactive). Besides, the GI50 in the assay with SNB-78 was 1.96 µM (inactive).
